## CCCCCCCCCCCCCCCCCCCCCCCCCCCCOC(=O)c1cccnc1.Cl
  melting point: 58 to 60 °C

## CCCCCCCCCCCCCCCCCCCCCCCCCCCCOC(=O)c1cccnc1 [1-octacosanyl nicotinate]
  melting point: 65 to 70 °C

Reference: patent publication US7615641B2, “Long chain aliphatic alcohol derivatives and methods of making and using same” (Sino Pharmaceuticals Corporation, priority 2004, dated 2009)
